{
  "source": "patent US20240376099A1",
  "about": "“COMPOUNDS AND COMPOSITIONS AS INHIBITORS OF ENDOSOMAL TOLL-LIKE RECEPTORS” (Novartis AG, priority 2016, published 2024)",
  "data": [
    {"biological_target": "T1, TLR7 (Homo sapiens, UniProt Q9NYK1)", "T1 construct": "Fresh blood was collected from normal human donors; endogenous in cells; host or cells: human PBMCs from fresh donor blood", "T1 sequence (Q9NYK1 27-1049)": "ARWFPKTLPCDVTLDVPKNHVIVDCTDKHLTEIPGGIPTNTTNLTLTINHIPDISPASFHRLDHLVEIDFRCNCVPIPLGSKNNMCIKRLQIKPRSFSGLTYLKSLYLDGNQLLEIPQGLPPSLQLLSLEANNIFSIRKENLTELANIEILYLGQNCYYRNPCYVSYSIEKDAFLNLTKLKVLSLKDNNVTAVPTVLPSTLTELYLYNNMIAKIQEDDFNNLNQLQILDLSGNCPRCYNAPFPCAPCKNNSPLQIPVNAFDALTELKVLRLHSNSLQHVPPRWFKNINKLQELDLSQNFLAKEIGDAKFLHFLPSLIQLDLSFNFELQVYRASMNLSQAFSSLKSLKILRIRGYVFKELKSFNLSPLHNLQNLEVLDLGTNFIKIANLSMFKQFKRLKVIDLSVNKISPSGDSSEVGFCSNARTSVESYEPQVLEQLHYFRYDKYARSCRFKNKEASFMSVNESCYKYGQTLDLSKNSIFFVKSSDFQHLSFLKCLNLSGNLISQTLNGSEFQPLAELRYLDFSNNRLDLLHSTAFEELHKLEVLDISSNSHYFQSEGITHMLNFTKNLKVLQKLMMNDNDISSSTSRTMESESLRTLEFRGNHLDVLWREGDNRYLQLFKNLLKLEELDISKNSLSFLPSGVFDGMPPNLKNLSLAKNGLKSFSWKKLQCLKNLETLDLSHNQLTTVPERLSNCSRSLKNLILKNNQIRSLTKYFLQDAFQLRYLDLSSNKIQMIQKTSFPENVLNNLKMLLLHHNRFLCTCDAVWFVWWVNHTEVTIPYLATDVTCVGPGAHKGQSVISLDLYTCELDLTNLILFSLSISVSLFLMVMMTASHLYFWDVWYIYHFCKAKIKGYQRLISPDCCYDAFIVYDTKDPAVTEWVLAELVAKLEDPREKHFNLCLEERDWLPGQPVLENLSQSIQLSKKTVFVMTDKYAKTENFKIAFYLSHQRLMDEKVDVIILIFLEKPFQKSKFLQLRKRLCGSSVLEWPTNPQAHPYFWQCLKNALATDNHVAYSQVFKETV", "test": "huPBMC TLR7 Antagonist IFNα Assay", "type": "cell-based", "conditions": "human PBMCs stimulated with ssRNA40 10 μg/mL (DOTAP), 14-16 hrs; IFNα2b AlphaLISA read-out", "outline": "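Human PBMCs from fresh donor blood (150,000 cells/well) stimulated 14–16 h at 37 °C with DOTAP-complexed ssRNA40 (final 1 μg/ml for TLR8, 10 μg/mL for TLR7) or ODN2216 (final 0.3 μM, TLR9), 0.25% DMSO, ten-point 1/3 compound dilutions. Supernatant IL-6 read by HTRF (TLR8); IFNα by IFNα2b AlphaLISA (TLR7/TLR9).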", "units": {"IC50": "nM"}, "values": [
      {"smiles": "[2H]C([2H])([2H])N(CC(=O)NC12CCC(Cn3nc(C)c4c3CCN(c3cc(C)nc5c3cnn5C)C4)(CC1)CC2)C([2H])([2H])[2H]", "note": "[compound 134, 2-(bis(trideuteromethyl)amino)-N-(4-((5-(1,6-dimethyl-1H-pyrazolo[3,4-b]pyridin-4-yl)-3-methyl-4,5,6,7-tetrahydro-1H-pyrazolo[4,3-c]pyridin-1-yl)methyl)bicyclo[2.2.2]octan-1-yl)acetamide]", "IC50": 1},
      {"smiles": "Cc1cc(N2CCc3c(c(C)nn3CC34CCC(NCC5(CO)COC5)(CC3)CC4)C2)c2cnn(C)c2n1", "note": "[compound 137, (3-(((4-((5-(1,6-dimethyl-1H-pyrazolo[3,4-b]pyridin-4-yl)-3-methyl-4,5,6,7-tetrahydro-1H-pyrazolo[4,3-c]pyridin-1-yl)methyl)bicyclo[2.2.2]octan-1-yl)amino)methyl)oxetan-3-yl)methanol]", "IC50": 72},
      {"smiles": "CCn1ncc2c(N3CCc4c(c(C)nn4CC45CCC(NC(=O)[C@@H]6COCCN6)(CC4)CC5)C3)cc(C)nc21", "note": "[compound 141, (S)-N-(4-((5-(1-ethyl-6-methyl-1H-pyrazolo[3,4-b]pyridin-4-yl)-3-methyl-4,5,6,7-tetrahydro-1H-pyrazolo[4,3-c]pyridin-1-yl)methyl)bicyclo[2.2.2]octan-1-yl)morpholine-3-carboxamide]", "IC50": 32},
      {"smiles": "CNCCC(=O)NC12CCC(Cn3nc(C)c4c3CCN(c3cc(C)nc5c3cnn5C)C4)(CC1)CC2", "note": "[compound 142, N-(4-((5-(1,6-dimethyl-1H-pyrazolo[3,4-b]pyridin-4-yl)-3-methyl-4,5,6,7-tetrahydro-1H-pyrazolo[4,3-c]pyridin-1-yl)methyl)bicyclo[2.2.2]octan-1-yl)-3-(methylamino)propanamide]", "IC50": 47},
      {"smiles": "Cc1cc(N2CCc3c(c(C)nn3CC34CCC(NC5CCC5)(CC3)CO4)C2)c2cnn(C)c2n1", "note": "[compound 143, N-cyclobutyl-1-((5-(1,6-dimethyl-1H-pyrazolo[3,4-b]pyridin-4-yl)-3-methyl-4,5,6,7-tetrahydro-1H-pyrazolo[4,3-c]pyridin-1-yl)methyl)-2-oxabicyclo[2.2.2]octan-4-amine]", "IC50": 41},
      {"smiles": "Cc1nn(CC23CCC(NC4CCC4)(CC2)CC3)c2c1CN(c1ccnc(-c3ccccc3)c1)CC2", "note": "[compound 144, N-cyclobutyl-4-((3-methyl-5-(2-phenylpyridin-4-yl)-4,5,6,7-tetrahydro-1H-pyrazolo[4,3-c]pyridin-1-yl)methyl)bicyclo[2.2.2]octan-1-amine]", "IC50": 73},
      {"smiles": "Cc1cc(N2CCc3c(c(C)nn3CC34CCC(NC(=O)OC(C)(C)C)(CC3)C4)C2)c2cnn(C)c2n1", "note": "[compound 148, tert-butyl (4-((5-(1,6-dimethyl-1H-pyrazolo[3,4-b]pyridin-4-yl)-3-methyl-4,5,6,7-tetrahydro-1H-pyrazolo[4,3-c]pyridin-1-yl)methyl)bicyclo[2.2.1]heptan-1-yl)carbamate]", "IC50": 54}
    ]}
  ]
}
